Reference: patent US20220264878A1, “HERBICIDAL COMPOSITION CONTAINING R-TYPE PYRIDYLOXY CARBOXYLIC ACID DERIVATIVE AND USE THEREOF” (Qingdao Kingagroot Chemical Compound Co., Ltd., priority 2019, published 2022)

What was measured:
Assay type in all cases: in vivo
Chloris virgata = test: Post-emergence foliage spray, pot culture, fresh weight inhibition (Tables 1-48, 51-98, 101-148; 24 days)
Excerpt: (§1) Table 1-48, 51-98, 101-148: Echinochloa crusgalli var. zelayensis, Eclipta prostrate, Galium aparine L., Alopecurus aequalis, Alopecurus japonicus, Lindernia procumbens, Veronica persica^1, Malachium aquaticum, Beckmannia syzigachne, Stellaria media were collected in Huai'an of Jiangsu Province; Commelina communis, Sonchus arvensis, Setaria glauca, Chloris virgata, Setaria faberi, Sonchus oleraceus L., Echinochloa oryzoides, Cirsium setosum, Xanthium strumarium were collected in Qiqiha'er of Heilongjiang Province; Sinapis arvensis, Veronica persica^2 were collected in Zhumadian of Henan Province; Ludwigia prostrate, Ammannia arenaria were collected in Zhuji of Zhejiang Province; Amaranthus retrojlexus, Descurainia sophia, Digitaria sanguinalis, Setaria viridis, Conyza Canadensis, Capsella bursa-pastoris, Eleusine indica, Ipomoea purpurea, Abutilon theophrasti, Chenopodium album, Acalypha australis, Solanum nigrum were collected in Qingdao of Shandong Province; Echinochloa caudate were collected in Pingluo of Ningxia Province.
(§2) The above weeds were cultivated by a pot culture method. […] Full and uniform weed seeds were selected, soaked in warm water at 25° C. for 6 hours, and germinated in a 28° C. biochemical incubator (darkness). The weed seeds that had just germinatedwere evenly placed on the surface of the soil and then covered with 0.5-1 cm soil according to the sizes of seeds.
(§3) The culture was carried out in a controllable sunlight greenhouse at 20 to 30° C., in natural light, and relative humidity of 57% to 72%.
(§4) The technical materials were all dissolved in acetone, and diluted with an aqueous solution containing 0.1% emulsifier Tween-80. The dilution is performed as required.
(§5) A ratio of the active ingredient A to the active ingredient B and amounts thereof in each group depends on the characteristics and toxicity of the two agents, as well as the main application purpose of a corresponding formulation. Based on the pre-tests in this study, the dosage of the active ingredient A and B applied alone and in combination were shown in the tables. Water containing the solvent and emulsifier same with the above groups but free of the agents was used as a blank control.
(§6) Table 1-48, 51-98, 101-148, 151-206: […] per treatment, that is, a total of 60 weeds were treated in one treatment.
(§7) Table 1-48, 51-98, 101-148: The agents were used for only once in the experiment. In the stage of weeds with 3˜4 leaves, the weeds were thinned out to maintain 15 weeds per pot and 45 weeds for each treatment, then continued to be cultured to 5˜6 leaves stage of grassy weeds, 6˜7 leaves stage of broadleaf weeds, and treated.
(§8) The well-cultured weeds were evenly placed on a platform with an area of 0.5 m^2, and a solution of agents was sprayed on the stems and leaves thereof by the 3WP-2000-type walking spray tower at a dosage of 450 kg/ha and at a spray pressure of 0.3 MPa. After all the solution was sprayed, the valve was closed. After 30 seconds, the door of the spray tower was opened, and the nutritional bowl was taken out. Then the valve was opened, and the spray tube was cleaned by spraying 50 ml of water.
(§9) A pot-culture method was employed. For the cultivation of weeds, please refer to the Section 1.1), and “Pesticide guidelines for laboratory bioactivity tests—herbicides”. As to a method for applying agents, please refer to the section 2.3.2), that is, a foliage treatment was employed. After the treatment, the weeds were routinely cultured in a greenhouse.
(§10) A method for investigating absolute number was employed, wherein whole seedlings of survival weeds were cut off with a blade along the soil surface, and the fresh weight of the weeds was weighed with an analytical balance. For dead weeds, the fresh weight thereof was zero.
(§11) Table 1-48, 51-98, 101-148, 207-216: The investigation was performed after 24 days of the treatment for only once.

Eleusine indica = test: as above
Excerpt: as §1, §2, §3, §4, §5, §6, §7, §8, §9, §10, §11

Capsella bursa-pastoris = test: Post-emergence foliage spray, pot culture, fresh weight inhibition (Tables 151-206; 20 days)
Procedure: as §2, §4, §5
(§12) In the stage of weeds with 3˜4 leaves, the weeds were thinned out to maintain 15 weeds per pot and 45 weeds for each treatment, then continued to be cultured to 4˜5 leaves stage of grassy weeds, 5˜6 leaves stage of broadleaf weeds, and treated.
as §8, §9, §10
(§13) Wherein, in the formula, X represented the fresh weight inhibition rate of the active ingredient A in a dosage of P, and Y represented the fresh weight inhibition rate of the active ingredient B in a dosage of Q.

Amaranthus retroflexus = test: as above
Procedure: as §2, §4, §5, §12, §8, §9, §10, §13

[1] = B alone 75 g a.i./ha, 20 days after treatment
[2] = B alone 150 g a.i./ha, 20 days after treatment
[3] = B alone 300 g a.i./ha, 20 days after treatment
[4] = B alone 600 g a.i./ha, 20 days after treatment

CCn1ncc(C(=O)c2ccc(S(C)(=O)=O)c(COCC(F)(F)F)c2Cl)c1OC(=O)c1cn(C)nc1C [fenpyrazone]
Control effect (%) of B applied alone in corresponding dose (Chloris virgata; B 7.5 g a.i./ha): 5.5%
Control effect (%) of B applied alone in corresponding dose (Chloris virgata; B 15 g a.i./ha): 14.8%
Control effect (%) of B applied alone in corresponding dose (Chloris virgata; B 30 g a.i./ha): 39.9%
Control effect (%) of B applied alone in corresponding dose (Chloris virgata; B 60 g a.i./ha): 79.2%
Control effect (%) of B applied alone in corresponding dose (Eleusine indica; Table 79, 7.5 g a.i./ha): 2.9%
Control effect (%) of B applied alone in corresponding dose (Eleusine indica; Table 79, 15 g a.i./ha): 10.9%
Control effect (%) of B applied alone in corresponding dose (Eleusine indica; Table 79, 30 g a.i./ha): 38.6%
Control effect (%) of B applied alone in corresponding dose (Eleusine indica; Table 79, 60 g a.i./ha): 79.1%

CS(=O)(=O)c1ccc(C(=O)C2C(=O)CCCC2=O)c([N+](=O)[O-])c1 [mesotrione]
Control effect (%) of B applied alone in corresponding dose (Chloris virgata; B 15 g a.i./ha): 6.5%
Control effect (%) of B applied alone in corresponding dose (Chloris virgata; B 30 g a.i./ha): 13.4%
Control effect (%) of B applied alone in corresponding dose (Chloris virgata; B 60 g a.i./ha): 38.3%
Control effect (%) of B applied alone in corresponding dose (Chloris virgata; B 120 g a.i./ha): 75.2%
Control effect (%) of B applied alone in corresponding dose (Eleusine indica; Table 82, 15 g a.i./ha): 4.0%
Control effect (%) of B applied alone in corresponding dose (Eleusine indica; Table 82, 30 g a.i./ha): 10.9%
Control effect (%) of B applied alone in corresponding dose (Eleusine indica; Table 82, 60 g a.i./ha): 36.9%
Control effect (%) of B applied alone in corresponding dose (Eleusine indica; Table 82, 120 g a.i./ha): 75.0%

CS(=O)(=O)c1ccc(C(=O)C2C(=O)CCCC2=O)c(Cl)c1COCC(F)(F)F [tembotrione]
Control effect (%) of B applied alone in corresponding dose (Chloris virgata; B 3.75 g a.i./ha): 4.0%
Control effect (%) of B applied alone in corresponding dose (Chloris virgata; B 7.5 g a.i./ha): 12.3%
Control effect (%) of B applied alone in corresponding dose (Chloris virgata; B 15 g a.i./ha): 41.0%
Control effect (%) of B applied alone in corresponding dose (Chloris virgata; B 30 g a.i./ha): 73.4%
Control effect (%) of B applied alone in corresponding dose (Eleusine indica; Table 83, 3.75 g a.i./ha): 5.4%
Control effect (%) of B applied alone in corresponding dose (Eleusine indica; Table 83, 7.5 g a.i./ha): 12.3%
Control effect (%) of B applied alone in corresponding dose (Eleusine indica; Table 83, 15 g a.i./ha): 39.7%
Control effect (%) of B applied alone in corresponding dose (Eleusine indica; Table 83, 30 g a.i./ha): 73.1%

CP(=O)(O)CCC(N)C(=O)O (stereo not shown) [glufosinate ammonium]
Control effect (%) of B applied alone in corresponding dose (Capsella bursa-pastoris; B 75 g a.i./ha, 20 days): 2.1%
Control effect (%) of B applied alone in corresponding dose (Capsella bursa-pastoris; B 150 g a.i./ha, 20 days): 8.7%
Control effect (%) of B applied alone in corresponding dose (Capsella bursa-pastoris; B 300 g a.i./ha, 20 days): 15.3%
Control effect (%) of B applied alone in corresponding dose (Capsella bursa-pastoris; B 600 g a.i./ha, 20 days): 34.5%
Control effect (%) of B applied alone in corresponding dose (Capsella bursa-pastoris; [1]): 2.1%
Control effect (%) of B applied alone in corresponding dose (Capsella bursa-pastoris; [2]): 8.7%
Control effect (%) of B applied alone in corresponding dose (Capsella bursa-pastoris; [3]): 15.3%
Control effect (%) of B applied alone in corresponding dose (Capsella bursa-pastoris; [4]): 34.5%
Control effect (%) of B applied alone in corresponding dose (Amaranthus retroflexus; B 75 g a.i./ha, 20 days): 10.2%
Control effect (%) of B applied alone in corresponding dose (Amaranthus retroflexus; B 150 g a.i./ha, 20 days): 19.6%
Control effect (%) of B applied alone in corresponding dose (Amaranthus retroflexus; B 300 g a.i./ha, 20 days): 28.6%
Control effect (%) of B applied alone in corresponding dose (Amaranthus retroflexus; B 600 g a.i./ha, 20 days): 54.1%
Control effect (%) of B applied alone in corresponding dose (Amaranthus retroflexus; [1]): 10.2%
Control effect (%) of B applied alone in corresponding dose (Amaranthus retroflexus; [2]): 19.6%
Control effect (%) of B applied alone in corresponding dose (Amaranthus retroflexus; [3]): 28.6%
Control effect (%) of B applied alone in corresponding dose (Amaranthus retroflexus; [4]): 54.1%
